{
  "source": "patent US4575487A",
  "about": "“Method for determination of transglucosidase” (Miles Laboratories, Inc., priority 1983, dated 1986)",
  "key": {"transglucosidase": {"biological_target": "transglucosidase (Aspergillus niger, UniProt P56526)", "sequence (P56526 26-266)": "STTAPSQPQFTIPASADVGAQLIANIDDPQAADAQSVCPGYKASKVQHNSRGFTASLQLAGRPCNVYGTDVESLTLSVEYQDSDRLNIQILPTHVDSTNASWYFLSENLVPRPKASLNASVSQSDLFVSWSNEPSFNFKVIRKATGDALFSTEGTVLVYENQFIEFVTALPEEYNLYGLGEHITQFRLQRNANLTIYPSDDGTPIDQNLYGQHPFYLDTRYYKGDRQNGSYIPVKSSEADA", "sequence (P56526 267-985)": "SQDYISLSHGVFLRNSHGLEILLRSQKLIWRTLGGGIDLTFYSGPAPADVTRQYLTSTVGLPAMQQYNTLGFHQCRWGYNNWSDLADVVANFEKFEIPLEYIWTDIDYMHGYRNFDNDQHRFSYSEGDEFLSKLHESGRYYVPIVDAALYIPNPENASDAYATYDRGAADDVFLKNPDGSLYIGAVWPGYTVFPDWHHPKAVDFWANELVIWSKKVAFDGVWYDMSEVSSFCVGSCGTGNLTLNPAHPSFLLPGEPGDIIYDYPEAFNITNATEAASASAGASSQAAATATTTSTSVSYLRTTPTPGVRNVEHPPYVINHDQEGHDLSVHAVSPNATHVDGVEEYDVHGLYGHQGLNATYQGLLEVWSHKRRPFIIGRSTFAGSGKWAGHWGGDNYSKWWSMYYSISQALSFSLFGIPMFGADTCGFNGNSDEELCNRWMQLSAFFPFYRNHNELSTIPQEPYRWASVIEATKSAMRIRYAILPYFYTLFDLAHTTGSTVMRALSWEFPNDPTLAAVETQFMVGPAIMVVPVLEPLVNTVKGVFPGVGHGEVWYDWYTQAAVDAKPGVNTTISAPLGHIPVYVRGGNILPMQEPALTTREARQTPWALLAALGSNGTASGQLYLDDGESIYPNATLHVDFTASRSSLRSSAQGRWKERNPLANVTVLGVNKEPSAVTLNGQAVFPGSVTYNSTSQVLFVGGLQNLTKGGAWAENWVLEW", "test": "Effect of acarbose on transglucosidase activity (panose produced from maltose, in presence of glucoamylase)", "assay_type": "biochemical", "details": "for amount of panose produced: maltose 10%, pH 4.8, 37° C., one hour; for Inhibition (%) transglucosidase: 40 units of transglucosidase", "description": "(§1) A particularly effective, selective inhibitor is acarbose which is identified by J. Jap. Soc. […] The difference in the effect of acarbose on glucoamylase and transglucosidase has led to the development of a sensitive assay for transglucosidase in the presence of glucoamylase. To determine the level of acarbose needed to inhibit glucoamylase completely, purified glucoamylase equivalent to one DU (the amount that liberates one gram of reducing sugar per hour under the conditions of the assay published in U.S. Pat. No. 3,249,514) is treated with graded amounts of acarbose and the remaining activity measured by incubation with maltose under appropriate conditions, for example, at pH 4.2 and 37° C. with a maltose concentration of 10%. The extent of inhibition of glucoamylase activity is increased with increasing concentrations of acarbose up to 50 μg acarbose per DU enzyme and above, such concentrations causing 100% inhibition. In order to determine the effect of acarbose on TG activity, glucoamylase (one DU) containing TG (40 TG units, vide infra) was treated with different concentrations of acarbose and then incubated with maltose (10%), at pH 4.8, and 37° C. for one hour. The enzyme reaction was then terminated by heating the reaction mixture in a boiling water bath for 15 minutes and transglucosidase activity was determined by measuring, using liquid chromatography, the amount of panose produced during the reaction period. […] In these experiments, panose was routinely measured by a high pressure liquid chromatography procedure which separated this compound from glucose and maltose. Alternative procedures for specific determination of panose can be used equally well.\n(§2) It is recognized that the inhibition of glucoamylase or acarbose and the measurement of transglucosidase activity may equally well be conducted under different conditions. In order to work at such alternative conditions, it is necessary to determine the effect of a range of acarbose concentrations under the conditions selected, and in this way to identify a level of acarbose sufficient to give complete inhibition of glucoamylase without inhibiting transglucosidase activity.\n^b 40 units of transglucosidase were present in the reaction mixture."}, "glucoamylase": {"biological_target": "glucoamylase (Aspergillus niger, UniProt P69328)", "sequence (P69328 25-640)": "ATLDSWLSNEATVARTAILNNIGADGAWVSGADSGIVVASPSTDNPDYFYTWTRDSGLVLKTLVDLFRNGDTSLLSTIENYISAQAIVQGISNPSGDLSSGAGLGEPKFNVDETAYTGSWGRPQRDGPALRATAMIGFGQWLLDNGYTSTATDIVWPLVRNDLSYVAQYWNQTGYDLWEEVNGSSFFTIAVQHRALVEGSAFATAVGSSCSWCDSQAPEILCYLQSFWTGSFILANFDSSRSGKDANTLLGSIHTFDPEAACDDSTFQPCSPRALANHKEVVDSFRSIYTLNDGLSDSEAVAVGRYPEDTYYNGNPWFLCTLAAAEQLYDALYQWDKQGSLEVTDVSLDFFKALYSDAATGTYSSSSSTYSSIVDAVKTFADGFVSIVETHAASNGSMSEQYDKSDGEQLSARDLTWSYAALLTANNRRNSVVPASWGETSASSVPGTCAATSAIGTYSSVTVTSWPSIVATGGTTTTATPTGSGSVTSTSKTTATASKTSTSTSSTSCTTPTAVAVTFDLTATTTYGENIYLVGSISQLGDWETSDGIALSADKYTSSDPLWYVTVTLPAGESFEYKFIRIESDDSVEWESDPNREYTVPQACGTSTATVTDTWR", "test": "Effect of acarbose on glucoamylase activity (remaining activity with maltose)", "assay_type": "biochemical", "details": "for Inhibition (%) glucoamylase: one unit of glucoamylase", "description": "as §1, §2\n^a one unit of glucoamylase was present in the reaction mixture."}, "amylolytic enzymes": {"tested_on": "amylolytic enzymes", "details": "J. Jap. Soc. Starch Sci., 27, 114-119 (1980); cited from earlier work"}, "[1]": {"details": "acarbose 1.25 μg/DU glucoamylase"}, "[2]": {"details": "acarbose 2.5 μg/DU glucoamylase"}, "[3]": {"details": "acarbose 100 μg/DU glucoamylase"}, "[4]": {"details": "acarbose 200 μg/DU glucoamylase"}, "[5]": {"details": "acarbose 300 μg/DU glucoamylase"}, "[6]": {"details": "acarbose 400 μg/DU glucoamylase"}, "[7]": {"details": "acarbose 500 μg/DU glucoamylase"}, "[8]": {"details": "acarbose 600 μg/DU glucoamylase"}, "[9]": {"details": "acarbose 800 μg/DU glucoamylase"}, "[10]": {"details": "acarbose 1000 μg/DU glucoamylase"}, "[11]": {"details": "acarbose 2000 μg/DU glucoamylase"}},
  "data": [
    {"smiles": "C[C@H]1O[C@H](O[C@H]2[C@H](O)[C@@H](O)[C@@H](O[C@H]3[C@H](O)[C@@H](O)C(O)O[C@@H]3CO)O[C@@H]2CO)[C@H](O)[C@@H](O)[C@@H]1N[C@H]1C=C(CO)[C@@H](O)[C@H](O)[C@H]1O", "note": "(stereo partly shown) [acarbose]", "values": [
      {"measurement": "amount of panose produced", "setting": "transglucosidase; above 50 up to 500 μg acarbose per DU of glucoamylase", "result": "remained constant"},
      {"measurement": "Inhibition (%) transglucosidase", "setting": "transglucosidase; [1]", "result": 0, "unit": "%"},
      {"measurement": "Inhibition (%) transglucosidase", "setting": "transglucosidase; [2]", "result": 0, "unit": "%"},
      {"measurement": "Inhibition (%) transglucosidase", "setting": "transglucosidase; acarbose 5 μg/DU glucoamylase", "result": 0, "unit": "%"},
      {"measurement": "Inhibition (%) transglucosidase", "setting": "transglucosidase; acarbose 10 μg/DU glucoamylase", "result": 0, "unit": "%"},
      {"measurement": "Inhibition (%) transglucosidase", "setting": "transglucosidase; acarbose 15 μg/DU glucoamylase", "result": 0, "unit": "%"},
      {"measurement": "Inhibition (%) transglucosidase", "setting": "transglucosidase; acarbose 20 μg/DU glucoamylase", "result": 0, "unit": "%"},
      {"measurement": "Inhibition (%) transglucosidase", "setting": "transglucosidase; acarbose 30 μg/DU glucoamylase", "result": 0, "unit": "%"},
      {"measurement": "Inhibition (%) transglucosidase", "setting": "transglucosidase; acarbose 40 μg/DU glucoamylase", "result": 0, "unit": "%"},
      {"measurement": "Inhibition (%) transglucosidase", "setting": "transglucosidase; acarbose 50 μg/DU glucoamylase", "result": 0, "unit": "%"},
      {"measurement": "Inhibition (%) transglucosidase", "setting": "transglucosidase; [3]", "result": 0, "unit": "%"},
      {"measurement": "Inhibition (%) transglucosidase", "setting": "transglucosidase; [4]", "result": 0, "unit": "%"},
      {"measurement": "Inhibition (%) transglucosidase", "setting": "transglucosidase; [5]", "result": 0, "unit": "%"},
      {"measurement": "Inhibition (%) transglucosidase", "setting": "transglucosidase; [6]", "result": 0, "unit": "%"},
      {"measurement": "Inhibition (%) transglucosidase", "setting": "transglucosidase; [7]", "result": 0, "unit": "%"},
      {"measurement": "Inhibition (%) transglucosidase", "setting": "transglucosidase; [8]", "result": 6, "unit": "%"},
      {"measurement": "Inhibition (%) transglucosidase", "setting": "transglucosidase; [9]", "result": 8, "unit": "%"},
      {"measurement": "Inhibition (%) transglucosidase", "setting": "transglucosidase; [10]", "result": 12, "unit": "%"},
      {"measurement": "Inhibition (%) transglucosidase", "setting": "transglucosidase; [11]", "result": 23, "unit": "%"},
      {"measurement": "inhibition of transglucosidase activity", "setting": "transglucosidase; acarbose 50-500 μg/DU", "result": "without there being any inhibition of transglucosidase activity"},
      {"measurement": "amount of panose produced", "setting": "transglucosidase; acarbose exceeding 500 μg/DU glucoamylase", "result": "steady decrease in the amount of panose produced, indicating inhibition of TG"},
      {"measurement": "amount of panose produced", "setting": "transglucosidase; up to 50 μg acarbose per DU of glucoamylase", "result": "increased with increasing levels of acarbose"},
      {"measurement": "inhibition of glucoamylase activity", "setting": "glucoamylase; 50 μg acarbose per DU enzyme and above, maltose 10%, pH 4.2, 37° C.", "result": 100, "unit": "%"},
      {"measurement": "Inhibition (%) glucoamylase", "setting": "glucoamylase; [1]", "result": 23, "unit": "%"},
      {"measurement": "Inhibition (%) glucoamylase", "setting": "glucoamylase; [2]", "result": 36, "unit": "%"},
      {"measurement": "Inhibition (%) glucoamylase", "setting": "glucoamylase; acarbose 5 μg/DU glucoamylase", "result": 65, "unit": "%"},
      {"measurement": "Inhibition (%) glucoamylase", "setting": "glucoamylase; acarbose 10 μg/DU glucoamylase", "result": 86, "unit": "%"},
      {"measurement": "Inhibition (%) glucoamylase", "setting": "glucoamylase; acarbose 15 μg/DU glucoamylase", "result": 91, "unit": "%"},
      {"measurement": "Inhibition (%) glucoamylase", "setting": "glucoamylase; acarbose 20 μg/DU glucoamylase", "result": 95, "unit": "%"},
      {"measurement": "Inhibition (%) glucoamylase", "setting": "glucoamylase; acarbose 30 μg/DU glucoamylase", "result": 97, "unit": "%"},
      {"measurement": "Inhibition (%) glucoamylase", "setting": "glucoamylase; acarbose 40 μg/DU glucoamylase", "result": 98, "unit": "%"},
      {"measurement": "Inhibition (%) glucoamylase", "setting": "glucoamylase; acarbose 50 μg/DU glucoamylase", "result": 100, "unit": "%"},
      {"measurement": "Inhibition (%) glucoamylase", "setting": "glucoamylase; [3]", "result": 100, "unit": "%"},
      {"measurement": "Inhibition (%) glucoamylase", "setting": "glucoamylase; [4]", "result": 100, "unit": "%"},
      {"measurement": "Inhibition (%) glucoamylase", "setting": "glucoamylase; [5]", "result": 100, "unit": "%"},
      {"measurement": "Inhibition (%) glucoamylase", "setting": "glucoamylase; [6]", "result": 100, "unit": "%"},
      {"measurement": "Inhibition (%) glucoamylase", "setting": "glucoamylase; [7]", "result": 100, "unit": "%"},
      {"measurement": "Inhibition (%) glucoamylase", "setting": "glucoamylase; [8]", "result": 100, "unit": "%"},
      {"measurement": "Inhibition (%) glucoamylase", "setting": "glucoamylase; [9]", "result": 100, "unit": "%"},
      {"measurement": "Inhibition (%) glucoamylase", "setting": "glucoamylase; [10]", "result": 100, "unit": "%"},
      {"measurement": "Inhibition (%) glucoamylase", "setting": "glucoamylase; [11]", "result": 100, "unit": "%"},
      {"measurement": "inhibition of glucoamylase activity", "setting": "glucoamylase; acarbose 50-500 μg/DU", "result": "completely inhibited"},
      {"measurement": "inhibition of amylolytic enzymes", "setting": "amylolytic enzymes", "result": "inhibitor of amylolytic enzymes"}
    ]}
  ]
}
